{"source": "patent US20070128217A1", "about": "(priority 2003, published 2007)", "key": {"[1]": {"test_system": "antibodies in sera from SARS patients (sera 1a, 1b, 2, 6, 37, 62, London, SARS-yellow, SARS-green)", "type": "binding, human", "design": "Binding of serum 6 to linear peptides of protein X1 of SARS-CoV Urbani / Binding of serum 37 to linear peptides of protein X1 of SARS-CoV Urbani / Binding of serum 6 to looped/cyclic peptide (PEPSCAN-ELISA) / Binding of serum 37 to looped/cyclic peptide (PEPSCAN-ELISA) / Binding of serum 37 to looped/cyclic peptides of protein X1 of SARS-CoV Urbani / Binding of serum 6 to linear peptides of protein X2 / Binding of serum 37 to linear peptides of protein X2 / Binding of serum 37 to looped/cyclic peptides of protein X2 of SARS-CoV Urbani / Binding of serum 6 to linear peptides of protein M of SARS-CoV Urbani / Binding of serum 37 to linear peptides of protein M of SARS-CoV Urbani / Binding of serum 6 to looped/cyclic peptides of protein M of SARS-CoV Urbani / Binding of serum 37 to looped/cyclic peptides of protein M of SARS-CoV Urbani / Binding of serum 6 to linear peptides of protein X3 of SARS-CoV Urbani / Binding of serum 37 to linear peptides of protein X3 of SARS-CoV Urbani / Binding of serum 37 to looped/cyclic peptides of protein X3 of SARS-CoV Urbani / Binding of serum 6 to linear peptides of protein X4 of SARS-CoV Urbani / Binding of serum 37 to linear peptides of protein X4 of SARS-CoV Urbani / Binding of serum 37 to looped/cyclic peptides of protein X4 of SARS-CoV Urbani / Binding of serum 6 to linear peptides of protein X5 of SARS-CoV Urbani / Binding of serum 37 to linear peptides of protein X5 of SARS-CoV Urbani / Binding of serum 37 to looped/cyclic peptides of protein X5 of SARS-CoV Urbani / Binding of serum 6 to linear peptides of protein N of SARS-CoV Urbani / Binding of serum 37 to linear peptides of protein N of SARS-CoV Urbani / Binding of serum 6 to linear peptide (PEPSCAN-ELISA) / Binding of serum 1a to looped/cyclic peptides of protein N of SARS-CoV Urbani / Binding of serum 1b to looped/cyclic peptides of protein N of SARS-CoV Urbani / Binding of serum 2 to looped/cyclic peptides of protein N of SARS-CoV Urbani / Binding of serum 6 to looped/cyclic peptides of protein N of SARS-CoV Urbani / Binding of serum 37 to looped/cyclic peptides of protein N of SARS-CoV Urbani / Binding of serum 62 to looped/cyclic peptides of protein N of SARS-CoV Urbani / Binding of serum London to looped/cyclic peptides of protein N of SARS-CoV Urbani / Binding of serum SARS-green to looped/cyclic peptides of protein N of SARS-CoV Urbani: unit not given here"}, "[2]": {"test_system": "control sera (pooled serum of ten healthy LUMC hospital workers; commercial negative donor pooled serum from the Dutch bloodbank)", "type": "binding, human", "design": "Binding of Control serum LUMC to linear peptides / Binding of Control serum Blood-bank to linear peptides / Binding of Control serum LUMC to looped peptides / Binding of Control Serum Blood-Bank to Looped peptides / Binding of Control serum LUMC to linear peptides of the protein M of SARS-CoV Urbani / Binding of Control serum Blood-bank to linear peptides of the protein M of SARS-CoV Urbani / Binding of Control serum LUMC to looped peptides of the protein M of SARS-CoV Urbani / Binding of Control Serum Blood-Bank to Looped peptides of the protein M of SARS-CoV Urbani: unit not given here"}, "[3]": {"test_system": "rabbit serum obtained by immunizing a rabbit with the SARS-CoV strain Frankfurt 1", "type": "binding", "design": "Binding of a rabbit serum to linear peptides / Binding of a rabbit serum to looped peptides / Rabbit serum linear peptides / Rabbit serum looped peptides / Binding of a rabbit serum to linear peptides of protein N of SARS-CoV Urbani (Rabbit serum linear peptides) / Binding of a rabbit serum to looped/cyclic peptides of protein N of SARS-CoV Urbani (Rabbit serum looped peptides): unit not given here"}}, "data": [{"sequence": "NKRWQLALYKGFQFI", "values": [{"measurement": "Binding of serum 1a to linear peptides of protein X1 of SARS-CoV Urbani", "setting": "[1]", "result": 0.7}, {"measurement": "Binding of serum 1a to looped/cyclic peptide (PEPSCAN-ELISA)", "setting": "[1]", "result": 0.6}, {"measurement": "Binding of serum 1b to linear peptides of protein X1 of SARS-CoV Urbani", "setting": "[1]", "result": 0.5}, {"measurement": "Binding of serum 1b to looped/cyclic peptide (PEPSCAN-ELISA)", "setting": "[1]", "result": 0.4}, {"measurement": "Binding of serum 2 to linear peptides of protein X1 of SARS-CoV Urbani", "setting": "[1]", "result": 0.7}, {"measurement": "Binding of serum 2 to looped/cyclic peptide (PEPSCAN-ELISA)", "setting": "[1]", "result": 0.5}, {"measurement": "Binding of serum 6 to linear peptides of protein X1 of SARS-CoV Urbani", "setting": "[1]", "result": 0.8}, {"measurement": "Binding of serum 6 to looped/cyclic peptide (PEPSCAN-ELISA)", "setting": "[1]", "result": 0.5}, {"measurement": "Binding of serum 37 to linear peptides of protein X1 of SARS-CoV Urbani", "setting": "[1]", "result": 0.6}, {"measurement": "Binding of serum 37 to looped/cyclic peptide (PEPSCAN-ELISA)", "setting": "[1]", "result": 0.6}, {"measurement": "Binding of serum 62 to linear peptides of protein X1 of SARS-CoV Urbani", "setting": "[1]", "result": 0.6}, {"measurement": "Binding of serum 62 to looped/cyclic peptide (PEPSCAN-ELISA)", "setting": "[1]", "result": 0.7}, {"measurement": "Binding of serum London to linear peptides of protein X1 of SARS-CoV Urbani", "setting": "[1]", "result": 0.3}, {"measurement": "Binding of serum London to looped/cyclic peptide (PEPSCAN-ELISA)", "setting": "[1]", "result": 0.4}, {"measurement": "Binding of serum SARS-green to linear peptides of protein X1 of SARS-CoV Urbani", "setting": "[1]", "result": 0.3}, {"measurement": "Binding of serum SARS-green to looped/cyclic peptide (PEPSCAN-ELISA)", "setting": "[1]", "result": 0.2}, {"measurement": "Binding of serum SARS-yellow to linear peptides of protein X1 of SARS-CoV Urbani", "setting": "[1]", "result": 0.3}, {"measurement": "Binding of serum SARS-yellow to looped/cyclic peptide (PEPSCAN-ELISA)", "setting": "[1]", "result": 0.5}, {"measurement": "Binding of Control Serum Blood-Bank to Looped peptides", "setting": "[2]", "result": 0.7}, {"measurement": "Binding of Control serum Blood-bank to linear peptides", "setting": "[2]", "result": 0.6}, {"measurement": "Binding of Control serum LUMC to linear peptides", "setting": "[2]", "result": 0.6}, {"measurement": "Binding of Control serum LUMC to looped peptides", "setting": "[2]", "result": 0.7}, {"measurement": "Recognition of the peptide by the rabbit serum", "setting": "[3]", "result": "recognized"}]}, {"sequence": "NLDVIISSIVRQLFK", "values": [{"measurement": "Binding of serum 1a to linear peptides of protein X3 of SARS-CoV Urbani", "setting": "[1]", "result": 0.7}, {"measurement": "Binding of serum 1a to looped/cyclic peptides of protein X3 of SARS-CoV Urbani", "setting": "[1]", "result": 0.5}, {"measurement": "Binding of serum 1b to linear peptides of protein X3 of SARS-CoV Urbani", "setting": "[1]", "result": 0.2}, {"measurement": "Binding of serum 1b to looped/cyclic peptides of protein X3 of SARS-CoV Urbani", "setting": "[1]", "result": 0.4}, {"measurement": "Binding of serum 2 to linear peptides of protein X3 of SARS-CoV Urbani", "setting": "[1]", "result": 0.4}, {"measurement": "Binding of serum 2 to looped/cyclic peptides of protein X3 of SARS-CoV Urbani", "setting": "[1]", "result": 0.5}, {"measurement": "Binding of serum 6 to linear peptides of protein X3 of SARS-CoV Urbani", "setting": "[1]", "result": 0.6}, {"measurement": "Binding of serum 6 to looped/cyclic peptides of protein X3 of SARS-CoV Urbani", "setting": "[1]", "result": 0.8}, {"measurement": "Binding of serum 37 to linear peptides of protein X3 of SARS-CoV Urbani", "setting": "[1]", "result": 0.6}, {"measurement": "Binding of serum 37 to looped/cyclic peptides of protein X3 of SARS-CoV Urbani", "setting": "[1]", "result": 0.5}, {"measurement": "Binding of serum 62 to linear peptides of protein X3 of SARS-CoV Urbani", "setting": "[1]", "result": 0.6}, {"measurement": "Binding of serum 62 to looped/cyclic peptides of protein X3 of SARS-CoV Urbani", "setting": "[1]", "result": 0.4}, {"measurement": "Binding of serum London to linear peptides of protein X3 of SARS-CoV Urbani", "setting": "[1]", "result": 0.7}, {"measurement": "Binding of serum London to looped/cyclic peptides of protein X3 of SARS-CoV Urbani", "setting": "[1]", "result": 1.8}, {"measurement": "Binding of serum SARS-green to linear peptides of protein X3 of SARS-CoV Urbani", "setting": "[1]", "result": 0.3}, {"measurement": "Binding of serum SARS-green to looped/cyclic peptides of protein X3 of SARS-CoV Urbani", "setting": "[1]", "result": 0.2}, {"measurement": "Binding of serum SARS-yellow to linear peptides of protein X3 of SARS-CoV Urbani", "setting": "[1]", "result": 0.3}, {"measurement": "Binding of serum SARS-yellow to looped/cyclic peptides of protein X3 of SARS-CoV Urbani", "setting": "[1]", "result": 0.6}, {"measurement": "Binding of Control Serum Blood-Bank to Looped peptides of the protein X3 of SARS-CoV Urbani", "setting": "[2]", "result": 0.8}, {"measurement": "Binding of Control serum Blood-bank to linear peptides of the protein X3 of SARS-CoV Urbani", "setting": "[2]", "result": 0.8}, {"measurement": "Binding of Control serum LUMC to linear peptides of the protein X3 of SARS-CoV Urbani", "setting": "[2]", "result": 0.6}, {"measurement": "Binding of Control serum LUMC to looped peptides of the protein X3 of SARS-CoV Urbani", "setting": "[2]", "result": 0.8}, {"measurement": "Rabbit serum linear peptides", "setting": "[3]", "result": 0.3}, {"measurement": "Rabbit serum looped peptides", "setting": "[3]", "result": 0.2}]}, {"sequence": "NPETNILLNVPLRGT", "values": [{"measurement": "Binding of serum 1a to linear peptides of protein M of SARS-CoV Urbani", "setting": "[1]", "result": 0.8}, {"measurement": "Binding of serum 1a to looped/cyclic peptides of protein M of SARS-CoV Urbani", "setting": "[1]", "result": 0.8}, {"measurement": "Binding of serum 1b to linear peptides of protein M of SARS-CoV Urbani", "setting": "[1]", "result": 0.6}, {"measurement": "Binding of serum 1b to looped/cyclic peptides of protein M of SARS-CoV Urbani", "setting": "[1]", "result": 0.7}, {"measurement": "Binding of serum 2 to linear peptides of protein M of SARS-CoV Urbani", "setting": "[1]", "result": 0.8}, {"measurement": "Binding of serum 2 to looped/cyclic peptides of protein M of SARS-CoV Urbani", "setting": "[1]", "result": 0.9}, {"measurement": "Binding of serum 6 to linear peptides of protein M of SARS-CoV Urbani", "setting": "[1]", "result": 0.3}, {"measurement": "Binding of serum 6 to looped/cyclic peptides of protein M of SARS-CoV Urbani", "setting": "[1]", "result": 0.7}, {"measurement": "Binding of serum 37 to linear peptides of protein M of SARS-CoV Urbani", "setting": "[1]", "result": 0.9}, {"measurement": "Binding of serum 37 to looped/cyclic peptides of protein M of SARS-CoV Urbani", "setting": "[1]", "result": 0.7}, {"measurement": "Binding of serum 62 to linear peptides of protein M of SARS-CoV Urbani", "setting": "[1]", "result": 0.9}, {"measurement": "Binding of serum 62 to looped/cyclic peptides of protein M of SARS-CoV Urbani", "setting": "[1]", "result": 0.7}, {"measurement": "Binding of serum London to linear peptides of protein M of SARS-CoV Urbani", "setting": "[1]", "result": 0.3}, {"measurement": "Binding of serum London to looped/cyclic peptides of protein M of SARS-CoV Urbani", "setting": "[1]", "result": 0.3}, {"measurement": "Binding of serum SARS-green to linear peptides of protein M of SARS-CoV Urbani", "setting": "[1]", "result": 0.3}, {"measurement": "Binding of serum SARS-green to looped/cyclic peptides of protein M of SARS-CoV Urbani", "setting": "[1]", "result": 0.4}, {"measurement": "Binding of serum SARS-yellow to linear peptides of protein M of SARS-CoV Urbani", "setting": "[1]", "result": 0.1}, {"measurement": "Binding of serum SARS-yellow to looped/cyclic peptides of protein M of SARS-CoV Urbani", "setting": "[1]", "result": 0.7}, {"measurement": "Binding of Control Serum Blood-Bank to Looped peptides of the protein M of SARS-CoV Urbani", "setting": "[2]", "result": 0.8}, {"measurement": "Binding of Control serum Blood-bank to linear peptides of the protein M of SARS-CoV Urbani", "setting": "[2]", "result": 0.7}, {"measurement": "Binding of Control serum LUMC to linear peptides of the protein M of SARS-CoV Urbani", "setting": "[2]", "result": 0.4}, {"measurement": "Binding of Control serum LUMC to looped peptides of the protein M of SARS-CoV Urbani", "setting": "[2]", "result": 0.9}, {"measurement": "Rabbit serum linear peptides", "setting": "[3]", "result": 0.4}, {"measurement": "Rabbit serum looped peptides", "setting": "[3]", "result": 0.2}]}]}
